Data taken from paper PMC7248956, “Discovery of Novel Imidazopyridine GSK-3β Inhibitors Supported by Computational Approaches” (Molecules, 2020).

Biological target: T1, GSK-3β (Homo sapiens, UniProt P49841)
Experiment: not given
Set-up: method as in PMID 26486317, PMID 32435391
Settings: INDZ derivatives 1–6, published ahead; cited from earlier work

T1 sequence (P49841 whole entry): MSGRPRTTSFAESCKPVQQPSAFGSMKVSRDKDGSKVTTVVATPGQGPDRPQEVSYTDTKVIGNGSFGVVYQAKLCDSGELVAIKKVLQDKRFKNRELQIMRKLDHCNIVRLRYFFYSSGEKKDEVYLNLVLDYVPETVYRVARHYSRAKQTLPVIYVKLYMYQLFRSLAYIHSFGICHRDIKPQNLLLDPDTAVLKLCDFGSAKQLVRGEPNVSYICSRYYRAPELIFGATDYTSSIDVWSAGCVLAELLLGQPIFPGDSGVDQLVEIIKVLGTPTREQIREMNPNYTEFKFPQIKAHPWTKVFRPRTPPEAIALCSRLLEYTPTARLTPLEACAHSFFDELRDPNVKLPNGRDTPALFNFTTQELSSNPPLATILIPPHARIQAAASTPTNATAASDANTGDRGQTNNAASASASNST

| SMILES | IC50 [nM] |
| --- | --- |
| COCCN1CCC(CNC(=O)c2n[nH]c3ccc(-c4cncc(OC(C)C)c4)cc23)CC1 [Compound 2] | 9 |

Same assay, conditions: INDZ derivatives; cited from earlier work

| SMILES | IC50 [nM] |
| --- | --- |
| COCCN1CCC(CNC(=O)c2n[nH]c3ccc(-c4cncc(OC(C)C)c4)cc23)CC1 [Compound 2] | 4 |

Biological target: T1, GSK-3β
Experiment: in vitro GSK-3β inhibition assay
Format: biochemical
Settings: IMID 1 and IMID 2 derivatives 7–18; average of duplicate wells
Description: Driven by the promising results, compounds 7–18 were synthesized as reported in Chemistry Section 2.1. Their biological activity was determined using an in vitro GSK-3β assay described elsewhere. […] In vitro MDCK-MDR1 permeability of IMID 1 and IMID 2 derivatives was also experimentally assessed (Table 1). […] In this respect, a decrease of TPSA was observed moving from INDZ 6 to the corresponding analogues 12 (IMID 1) and 18 (IMID 2), and from 3 to 15. The SAR analysis highlighted the detrimental impact of the positively charged piperidine ring of 2-8-14 triplet and derivative 13 on CNS permeability. […] When the piperidine was replaced with an oxanyl ring, while keeping the isopropoxypyridinyl group on the other side (2 vs. 4 and 8 vs. 10), a low CNS penetration was still observed, indicating a coexisting unfavorable contribution (high TPSA) of the R2 moiety to permeability. The comparison of the 4–10 pyridinyl derivatives with the corresponding 6–12 di-F-phenyl molecules confirmed an ameliorated BBB permeability when lipophilicity raises.

| SMILES | IC50 [nM] |
| --- | --- |
| COCCN1CCC(CNC(=O)c2ncc3ccc(-c4cncc(OC(C)C)c4)cn23)CC1 [Compound 14, 6-(5-Isopropoxypyridin-3-yl)-N-((1-(2-methoxyethyl)piperidin-4-yl)methyl)imidazo[1,5-a]pyridine-3-carboxamide] | 230 |
| O=C(NCC1CCOCC1)c1ncc2ccc(-c3cccc(F)c3F)cn12 [Compound 18, 6-(2,3-Difluorophenyl)-N-((tetrahydro-2H-pyran-4-yl)methyl)imidazo[1,5-a]pyridine-3-carboxamide] | 240 |
| O=C(NCC1CCOCC1)c1ncn2ccc(-c3cccc(F)c3F)cc12 [Compound 12, 7-(2,3-Difluorophenyl)-N-((tetrahydro-2H-pyran-4-yl)methyl)imidazo[1,5-a]pyridine-1-carboxamide] | 280 |
| COCCN1CCC(CNC(=O)c2ncn3ccc(-c4cncc(OC(C)C)c4)cc23)CC1 [Compound 8, 7-(5-Isopropoxypyridin-3-yl)-N-((1-(2-methoxyethyl)piperidin-4-yl)methyl)imidazo[1,5-a]pyridine-1-carboxamide] | 120 |
| O=C(NCC1CCOCC1)c1ncn2ccc(-c3cnccc3CO)cc12 [Compound 11, 7-(4-(Hydroxymethyl)pyridin-3-yl)-N-((tetrahydro-2H-pyran-4-yl)methyl)imidazo [1,5-a]pyridine-1-carboxamide] | 1400 |
| O=C(NCC1CCOCC1)c1ncn2ccc(-c3cccnc3)cc12 [Compound 9, 7-(Pyridin-3-yl)-N-((tetrahydro-2H-pyran-4-yl)methyl)imidazo[1,5-a]pyridine-1-carboxamide] | 180 |
| O=C(NCC1CCOCC1)c1ncc2ccc(-c3cccnc3)cn12 [Compound 15, 6-(Pyridin-3-yl)-N-((tetrahydro-2H-pyran-4-yl)methyl)imidazo[1,5-a]pyridine-3-carboxamide] | 91 |
| COCCN1CCC(CNC(=O)c2ncc3ccc(-c4cccnc4)cn23)CC1 [Compound 13, N-((1-(2-Methoxyethyl)piperidin-4-yl)methyl)-6-(pyridin-3-yl)imidazo[1,5-a]pyridine-3-carboxamide] | 370 |
| CC(C)Oc1cncc(-c2ccn3cnc(C(=O)NCC4CCOCC4)c3c2)c1 [Compound 10, 7-(5-Isopropoxypyridin-3-yl)-N-((tetrahydro-2H-pyran-4-yl)methyl)imidazo[1,5-a]pyridine-1-carboxamide] | 200 |
| CC(C)Oc1cncc(-c2ccc3cnc(C(=O)NCC4CCOCC4)n3c2)c1 [Compound 16, 6-(5-Isopropoxypyridin-3-yl)-N-((tetrahydro-2H-pyran-4-yl)methyl)imidazo[1,5-a]pyridine-3-carboxamide] | 72 |
| O=C(NCC1CCOCC1)c1ncc2ccc(-c3cnccc3CO)cn12 [Compound 17, 6-(4-(Hydroxymethyl)pyridin-3-yl)-N-((tetrahydro-2H-pyran-4-yl)methyl)imidazo[1,5-a]pyridine-3-carboxamide] | 910 |
| COCCN1CCC(CNC(=O)c2ncn3ccc(-c4cccnc4)cc23)CC1 [Compound 7, N-((1-(2-Methoxyethyl)piperidin-4-yl)methyl)-7-(pyridin-3-yl)imidazo[1,5-a]pyridine-1-carboxamide] | 410 |
